One data set addresses T1, human MCHR1 (Homo sapiens, UniProt Q99705).
T1 construct: The full-length cDNA for human MCHR1 was cloned; expressed in transfected cells; host or cells: AV12 cells previously transfected with Gα15
Briefly: 125I-MCH competitive binding assay on clone 43 membranes (MCHR1 binding). To be noted: competitive binding vs 100 pM 125I-MCH, clone 43 membranes (AV12 cells expressing MCHR1), Ki from IC50 by Cheng-Prusoff, tested in duplicate, read-out: MCHr Binding Ki. Here is the method:
The full-length cDNA for human MCHR1 was cloned from a human adult brain cDNA library (Edge Biosystems, Cat. 38356) by standard polymerase chain reaction (PCR) methodology employing the following primers: sense, 5′-GCCACCATGGACCT GGAAGCCTCGCTGC-3′; anti-sense, 5′-[…]-3′. The PCR reaction was performed in a final volume of 50 μL containing 5 μL of a 10× stock solution of PCR buffer, 1 μL of 10 mM dNTP mixture (200 μM final), 2 μL of 50 mM Mg(SO4) (2 mM final), 0.5 μL of 20 μM solutions of each primer (0.2 μM final), 5 μL of template cDNA containing 0.5 ng DNA, 0.5 μL of Platinum Taq High Fidelity DNA polymerase (Gibco Life Technologies) and 36 μL of H2O. PCR amplification was performed on a Perkin Elmer 9600 thermocycler. After denaturation for 90 sec at 94° C., the amplification sequence consisting of 94° C. for 25 sec, 55° C. for 25 sec and 72° C. for 2 min was repeated 30 times, followed by a final elongation step at 72° C. for 10 min. The desired PCR product (1.1 Kb) was confirmed by agarose gel electrophoresis and the band was extracted from the gel by Geneclean (Bio101) following the manufacturer's instructions. Following extraction, the cDNA fragment was cloned into pCR2.1-TOPO plasmid (Invitrogen) to confirm the identity and sequence.
In order to generate cell lines stably expressing MCHR1, the insert was then subcloned into the Xba I and Not I sites of pcDNA(+)-3.1-neomycin (Invitrogen). After purification by Qiagen Maxi-prep kit (QIAGEN, Inc.), the plasmid was transfected by Fugene 6 (Roche Applied Science) into AV12 cells that had been previously transfected with the promiscuous G protein Gα15. The transfected cells were selected by G418 (800 μg/mL) for 10–14 days and single colonies were isolated from culture plates. The G418-resistant colonies were further selected for MCHR1 expression by measuring MCH-stimulated Ca^2+ transients with a fluorometric imaging plate reader (FLIPR, Molecular Devices).
Both the ^125I-MCH binding and functional GTPγ^35S binding assays employed membranes isolated from a clone designated as clone 43. Typically, cells from 20 confluent T225 flasks were processed by washing the monolayers in cold phosphate-buffered saline (PBS), scraping the cells into same and re-suspending the cell pellet in 35 mL of 250 mM Sucrose, 50 mM HEPES, pH 7.5, 1 mM MgCl2, 24 μg/mL DNase I, and protease inhibitors (1 Complete® tablet, per 50 ml of buffer prepared, Roche Diagnostics). After incubation on ice for 5 min, cells were disrupted with 20–25 strokes of a Teflon/Glass homogenizer attached to an overhead motorized stirrer, and the homogenate was centrifuged at 40,000 rpm in Beckman Type 70.1 Ti rotor. The pellets were re-suspended in 250 mM Sucrose, 50 mM HEPES, pH 7.5, 1.5 mM CaCl2, 1 mM MgSO4 and protease inhibitors by Teflon/Glass homogenization to achieve a protein concentration of ˜3–5 mg/ml (Pierce BCA assay with Bovine serum albumin as standard). Aliquots were stored at −70° C.
Binding of compounds to MCHR1 was assessed in a competitive binding assay employing ^125I-MCH, compound and clone 43 membranes. Briefly, assays are carried out in 96-well Costar 3632 white opaque plates in a total volume of 200 μl containing 25 mM HEPES, pH 7.5, 10 mM CaCl2, 2 mg/ml bovine serum albumin, 0.5% dimethyl sulfoxide (DMSO), 4 μg of clone 43 membranes, 100 pM ^125I-MCH (NEN), 1.0 mg of wheat germ agglutinin scintillation proximity assay beads (WGA-SPA beads, Amersham) and a graded dose of test compound. Non-specific binding is assessed in the presence of 1 μM unlabeled MCH. Bound ^125I-MCH is determined by placing sealed plates in a Microbeta Trilux (Wallac) and counting after a 5 hr delay.
IC50 values (defined as the concentration of test compound required to reduce specific binding of ^125I-MCH by 50%) are determined by fitting the concentration-response data to a 4-parameter model (max response, min response, Hill coefficient, IC50) using Excel. […]

Counter-ions that a name gives are not always drawn. Like-named read-outs stand apart in the source and are kept apart here.

T1 sequence (Q99705 whole entry): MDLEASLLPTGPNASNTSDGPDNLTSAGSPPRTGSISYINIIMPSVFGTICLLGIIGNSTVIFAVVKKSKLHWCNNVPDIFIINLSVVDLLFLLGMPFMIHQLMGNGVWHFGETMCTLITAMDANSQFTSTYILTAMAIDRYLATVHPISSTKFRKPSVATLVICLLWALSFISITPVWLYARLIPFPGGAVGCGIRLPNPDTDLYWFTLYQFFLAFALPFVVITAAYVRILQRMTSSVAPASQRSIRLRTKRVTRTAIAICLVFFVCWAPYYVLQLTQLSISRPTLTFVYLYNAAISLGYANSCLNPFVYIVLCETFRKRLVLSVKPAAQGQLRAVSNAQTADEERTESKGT

Consider `CN(C)CCCCNC(=O)c1ccc(-c2cccc(CSCCOc3ccccc3)c2)cc1.O=C(O)C(=O)O` [Example 16, 3′-(2-phenoxy-ethylsulfanylmethyl)-biphenyl4-carboxylic acid (4-dimethylamino-butyl)-amide oxalate], for which the melting point fell in the range of 85 to 89 °C. In addition, the Ki at human MCHR1 came to 8.96 µM.
Consider `CN(C)CCCNC(=O)c1ccc(-c2ccc(CSCCOc3ccccc3)cc2)cc1` (as salt: hydrochloride), for which the melting point lay in the range of 112 to 115 °C.
`CN(C)CCCCNC(=O)c1ccc(-c2ccc(CSCCOc3ccccc3)cc2)cc1.O=C(O)C(=O)O` [Example 6, 4′-(2-phenoxy-ethylsulfanylmethyl)-biphenyl-4-carboxylic acid (4-dimethylamino-butyl)-amide oxalate]: the melting point was 142 to 147 °C. Moreover, the Ki on human MCHR1 is 10.1 µM.
As to “4′-(2-phenoxy-ethylsulfanylmethyl)-biphenyl-4-carboxylic acid (2-dimethylamino-ethyl)-amide oxalate [Example 4]”, at human MCHR1 (oxalate), the Ki amounted to 11.7 µM.
For `CN(C)CCCCNC(=O)c1ccccc1-c1ccc(CSCCOc2ccccc2)cc1.O=C(O)C(=O)O` [Example 9, 4′-(2-phenoxy-ethylsulfanylmethyl)-biphenyl-2-carboxylic acid (4-dimethylamino-butyl)-amide oxalate], the melting point was 72 to 76 °C. The Ki at human MCHR1 worked out at 16.3 µM.
The matching figures for `CN(C)CCNC(=O)c1ccc(-c2ccccc2CSCCOc2ccccc2)cc1` [Example 23, 2′-(2-phenoxy-ethylsulfanylmethyl)-biphenyl4-carboxylic acid (2-dimethylamino-ethyl)-amide]: 93 to 96 °C and 7.2 µM.
For `CN(C)CCCNC(=O)c1cccc(-c2cccc(CSCCOc3ccccc3)c2)c1.O=C(O)C(=O)O` [Example 13, 3′-(2-phenoxy-ethylsulfanylmethyl)-biphenyl-3-carboxylic acid (3-dimethylamino-propyl)-amide oxalate] the same measures were 51 to 53 °C and 8.76 µM.
The matching figures for `CN(C)CCCCNC(=O)c1cccc(-c2ccc(CSCCOc3ccccc3)cc2)c1.O=C(O)C(=O)O` [Example 3, 4′-(2-phenoxy-ethylsulfanylmethyl)-biphenyl-3-carboxylic acid (4-dimethylamino-butyl)-amide oxalate]: 144 to 147 °C and 10.7 µM.
Take `CN(C)CCNC(=O)c1ccccc1-c1ccccc1CSCCOc1ccccc1.O=C(O)C(=O)O`: the melting point fell in the range of 46 to 50 °C.
`CN(C)CCCNC(=O)c1cccc(-c2ccc(CSCCOc3ccccc3)cc2)c1.O=C(O)C(=O)O` [Example 1, 4′-(2-phenoxy-ethylsulfanylmethyl)-biphenyl-3-carboxylic acid(3-dimethylamino-propyl)-amide oxalate]: the melting point was 132 to 133.5 °C. Also, at human MCHR1, the Ki was 5.04 µM.
Regarding `CN(C)CCNC(=O)c1ccccc1-c1ccc(CSCCOc2ccccc2)cc1.O=C(O)C(=O)O`, the melting point was 109 to 113 °C.
For the molecule `CN(C)CCNC(=O)c1cccc(-c2ccccc2CSCCOc2ccccc2)c1.O=C(O)C(=O)O` [Example 20, 2′-(2-phenoxy-ethylsulfanylmethyl)-biphenyl-3-carboxylic acid (2-dimethylamino-ethyl)-amide oxalate], the melting point was 96 to 100 °C. For the same molecule, the Ki on human MCHR1 worked out at 11.4 µM.
The matching figures for `CN(C)CCCNC(=O)c1ccc(-c2cccc(CSCCOc3ccccc3)c2)cc1.O=C(O)C(=O)O` [Example 15, 3′-(2-phenoxy-ethylsulfanylmethyl)-biphenyl4-carboxylic acid (3-dimethylamino-propyl)-amide oxalate]: 133 to 137 °C and 1.95 µM.
Take `CN(C)CCCCNC(=O)c1ccc(-c2ccccc2CSCCOc2ccccc2)cc1` [Example 25, 2′-(2-phenoxy-ethylsulfanylmethyl)-biphenyl4-carboxylic acid (4-dimethylamino-butyl)-amide]: the Ki on human MCHR1 is 6.89 µM.
`CN(C)CCNC(=O)c1cccc(-c2ccc(CSCCOc3ccccc3)cc2)c1.O=C(O)C(=O)O` [Example 2, 4′-(2-phenoxy-ethylsulfanylmethyl)-biphenyl-3-carboxylic acid (2-dimethylamino-ethyl)-amide oxalate] displayed a melting point of 88 to 93 °C. Also, the Ki on human MCHR1 amounted to 7.52 µM.
For `CN(C)CCCNC(=O)c1ccc(-c2ccccc2CSCCOc2ccccc2)cc1` [Example 24, 2′-(2-phenoxy-ethylsulfanylmethyl)-biphenyl4-carboxylic acid (3-dimethylamino-propyl)-amide] the same measures were 98 to 100 °C and 6.13 µM.
`CN(C)CCNC(=O)c1ccccc1-c1cccc(CSCCOc2ccccc2)c1.Cl` had a melting point of 150 to 153 °C.
In turn, `CN(C)CCCCNC(=O)c1ccccc1-c1ccccc1CSCCOc1ccccc1.O=C(O)C(=O)O` returned a melting point of 64 to 70 °C.
`CN(C)CCCNC(=O)c1cccc(-c2ccccc2CSCCOc2ccccc2)c1.O=C(O)C(=O)O` [Example 21, 2′-(2-phenoxy-ethylsulfanylmethyl)-biphenyl-3-carboxylic acid (3-dimethylamino-propyl)-amide oxalate] displayed a melting point of 97 to 100 °C. The inhibition constant Ki on human MCHR1 amounted to 8.55 µM.
The matching figures for `CN(C)CCNC(=O)c1ccc(-c2cccc(CSCCOc3ccccc3)c2)cc1` [Example 14, 3′-(2-phenoxy-ethylsulfanylmethyl)-biphenyl-4-carboxylic acid (2-dimethylamino-ethyl)-amide]: 75 to 78 °C and 1.47 µM.
For “2′-(2-phenoxy-ethylsulfanylmethyl)-biphenyl-3-carboxylic acid (4-dimethylamino-butyl)-amide oxalate [Example 22]”, on human MCHR1, the Ki came to 10.8 µM.

(Values after patent US7132456B2, “MCH receptor antagonists” (Eli Lilly and Company, priority 2002, dated 2006).)
